Reference: publication PMC3997483, “Aminostyrylbenzofuran Directly Reduces Oligomeric Amyloid-β and Reverses Cognitive Deficits in Alzheimer Transgenic Mice” (PLoS ONE, 2014)

Key:
[1] = Dissociation constant (pKa), GLpKa titration; assay type: physicochemical; conditions: aqueous 150 mM NaCl solution
Procedure: (§1) Dissociation constant (pKa) and partition coefficient (log P) Dissociation constant (pKa) and partition coefficient (log P) of KMS88009 were measured by a pH-method using GLpKa (Sirius, UK). pKa was measured by titrating KMS88009 solution and calculated from the shape of the titration curve. […] Log P of KMS88009 was calculated by a two-phase acid-base titration in a mixture of water and octanol. Three separate potentiometric titrations of KMS88009 were carried out at 23 ℃ in various octanol-water (0.15 M KCl) mixtures (0.5% to 50% octanol). The initial pH was adjusted to 10.0 with standardized 0.5 M NaOH prior to each titration. Titrations were performed with standardized 0.5 M HCl to pH 1.8. The pKa and log P values were calculated using RefinementPro software (Sirius, UK). Values are expressed as the mean ± SD of 3 independent experiments.

[2] = Partition coefficient (log P), octanol-water titration; assay type: physicochemical; conditions: 23 ℃
Procedure: as §1

[3] = Stability in PBS buffer (plasma stability study); assay type: in vitro ADME; conditions: 37 °C
[4] = tested on: APP/PS1 TG mice; experiment: Contextual fear conditioning, prophylactic trial; assay type: in vivo, mouse; conditions: vehicle TG 15.3%, WT 54.1%
[5] = tested on: Aβ oligomers; experiment: Western blot (6E10) of hippocampus soluble fraction, prophylactic trial; assay type: in vivo, mouse; conditions: soluble fraction of hippocampal homogenates, TG mice
[6] = tested on: Aβ40 and Aβ42; experiment: Aβ40/Aβ42 sandwich ELISA of hippocampus, therapeutic trial; assay type: in vivo, mouse; conditions: 30 mg/kg/day, 3 months
Procedure: Mice subjected to behavior tests were sacrificed and levels of Aβ in their brains were analyzed. After removing olfactory lobe and cerebellum of brain, hippocampus and cerebral cortex were separated. The separated regions were Dounce-homogenized first in 10-fold mass of a lysis buffer (RIPA, 150 mM NaCl, 1% NP-40, 0.5% deoxycholic acid, 0.1% SDS and 50 mM tris, pH 8.0) or tris buffer (50 mM tris and pH 8.0) containing protease inhibitor cocktail (Pierce, USA) for prophylactic or therapeutic treatment groups, respectively. The homogenates were then centrifuged at 16,000 g for 20 min at 4°C. The supernatant (soluble Aβ fraction) was collected and stored at −70°C until analyzed. The resulting pellet was solubilized in 20-fold mass of cold guanidine solution (5 M guanidine HCl, 50 mM tris HCl and pH 8.0) at room temperature for 4 hr followed by dilution with cold Dulbecco's phosphate buffered saline (PBS) with 5% BSA and 0.03% tween-20. The diluent was centrifuged at 16,000 g for 20 min at 4°C to obtain the insoluble Aβ fraction. The tissue concentrations of Aβ40 and Aβ42 in the soluble and insoluble fraction were measured using Aβ-detecting sandwich enzyme-linked immunosorbent assay (ELISA) kit (BioSource, USA). The levels of soluble Aβ oligomers were measured by a dot-blot immunoassay with an anti-oligomer antibody and an anti-Aβ antibody on soluble fraction of hippocampus homogenates. The homogenate sample (3 µL) was spotted onto nitrocellulose membrane (Whatman, UK). After blocking with 5% BSA in tris-buffered saline (TBS) for 1 hr at room temperature, the membrane was incubated with rabbit anti-oligomer polyclonal antibody (A11; 1∶1,000; Millipore, USA) overnight at 4°C, followed by incubation with HRP-secondary anti-rabbit antibody (1∶5,000; Millipore, USA) for 1 hr at room temperature. Blots were developed using ECL reagents (PerkinElmer, USA). […] The density of dots was analyzed with Multi Gauge program (Fuji Film, Japan) and the data was normalized to the average density of the TG control group. […]

SMILES: COc1ccc2cc(C=Cc3ccc(N(C)C)cc3)oc2c1 [KMS88009, 6-methoxy-2-(4-dimethylaminostyryl) benzofuran]
- pKa [1]: 1.5 ± 0.12
- logP [2]: 2.4 ± 0.19
- Parent compound remaining ([3]; 0.5 hr): 99.1%
- Parent compound remaining ([3]; 1 hr): 88.6%
- Parent compound remaining ([3]; 2 hr): 100.0%
- Parent compound remaining ([3]; 6 hr): 100.0%
- freezing responses (contextual fear conditioning) ([4]; PO 10 mg/kg/day): 42.3%
- freezing responses (contextual fear conditioning) ([4]; PO 30 mg/kg/day): 48.6%
- freezing responses (contextual fear conditioning) ([4]; PO 100 mg/kg/day): 49.3%
- Aβ oligomer species affected (western blot) [5]: prevented the accumulation of low-molecular-weight (3-mer) and high-molecular-weight (55 to 180 kDa) Aβ oligomeric species
- decrease of insoluble Aβ42 level vs TG littermates [6]: 50.9%
- decrease of insoluble Aβ40 level vs TG mice ([6]; not statistically significant): 44.9%
- decrease of soluble Aβ40 level vs TG mice ([6]; not statistically significant): 19.4%
